Type in all cases: functional
The subject of assay [1] is PC-3. Description: Antiproliferative activity against human PC3 cells at 10 ng/ml after 120 hrs by MTT assay relative to DMSO.
Assay [2] has as its system PC-3. The assay can be described thus: Antiproliferative activity against human PC3 cells at 12.5 uM after 120 hrs by MTT assay relative to DMSO. (In general: Tetrazolium dyes change colour on reduction, which living cells bring about.)
Assay [3] deals with PC-3. The assay can be described thus: Antiproliferative activity against human PC3 cells at 20 uM after 120 hrs by MTT assay relative to DMSO.
The subject of assay [4] is PC-3. The assay can be described thus: Antiproliferative activity against human PC3 cells at 3 uM after 120 hrs by MTT assay relative to DMSO.

This is an account of results in ChEMBL document CHEMBL1221184, “Identifying off-target effects and hidden phenotypes of drugs in human cells” (Nat Chem Biol, 2006).

As for `CCC(=C/[C@H](C)C/C=C/C(C)=C/[C@@H](C)C(=O)[C@@H](C)[C@H](O)[C@@H](C)C/C(C)=C/C(=O)O)/C=C/[C@@H]1OC(=O)C=C[C@@H]1C` [LEPTOMYCIN B], in the assay on PC-3 [1], the “fold change (FC)” value is 0.262.

For the molecule `O=c1c(-c2ccc(O)cc2)coc2cc(O)cc(O)c12` [GENISTEIN], the “fold change (FC)” value in the assay on PC-3 [2] was found to be 1.074. Regarding `COc1cccc(-c2cc(=O)c3ccccc3o2)c1N`, the “fold change (FC)” value in the assay with PC-3 [3] stood at 0.901. On to `CN(CCOc1ccc(C[C@H](Nc2ccccc2C(=O)c2ccccc2)C(=O)O)cc1)c1ccccn1`, for which, in the assay on PC-3 [4], the “fold change (FC)” value was found to be 0.956.
